In PMC9196953 (Drug development research, 1999):
Like-named read-outs stand apart in the source and are kept apart here.

Key:
[1] = molecular target: T1, rat A1 receptors (Rattus norvegicus, UniProt P25099); assay: Displacement of [3H]R-PIA binding to A1 receptors in rat brain membranes; conditions: read-out: Ki rA1
T1 construct: to A1 receptors from rat cerebral cortical membranes; from tissue; host or cells: rat cerebral cortical membranes
T1 sequence (P25099 1-326): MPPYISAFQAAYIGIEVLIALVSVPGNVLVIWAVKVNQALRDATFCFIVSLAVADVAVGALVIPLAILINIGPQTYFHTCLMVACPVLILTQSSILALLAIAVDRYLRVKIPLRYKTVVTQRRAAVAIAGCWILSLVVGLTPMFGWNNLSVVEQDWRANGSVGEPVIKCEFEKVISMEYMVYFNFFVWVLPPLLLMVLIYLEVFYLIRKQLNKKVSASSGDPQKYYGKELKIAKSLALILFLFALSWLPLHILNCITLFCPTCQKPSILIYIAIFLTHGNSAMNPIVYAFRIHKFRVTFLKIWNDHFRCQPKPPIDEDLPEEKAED
Description: (§1) All nonradioactive compounds were initially dissolved in DMSO and diluted with buffer to the final concentration, where the amount of DMSO never exceeded 2%. Incubations were terminated by rapid filtration over Whatman GF/B filters using a Brandell cell harvester. The tubes were rinsed three times with 3 mL buffer each.
(§2) At least six different concentrations of competitor, spanning 3 orders of magnitude adjusted appropriately for the IC50 value of each compound, were used. IC50 values, calculated with the nonlinear regression method implemented in Graph-Pad Prism (San Diego, CA) were converted to apparent Ki values as described by [Linden [1982]]. Hill coefficients of the tested compounds were in the range of 0.8–1.1.
(§3) At A2B receptors, two radioligand binding assays (Table 1) were used. Ki values of xanthine derivatives were determined in displacement of binding of the non-selective radioligands […], 8 (4-(2-[7-amino-2-{furyl}{1,2,4}triazolo{2,3-a}{1,3,5}tr nzyl)-8-phenyloxyacetate-1-propyl-xanthine), at human A2B receptors expressed in HEK-293 cell membranes [[Linden and Jacobson, 1998]]. In order to evaluate selectivity, selected derivatives were subjected to standard binding assays at A1, A2A, and A3 receptors. The initial screening utilized rat brain A1/A2A receptors (with radioligands [^3H]R-PIA and [^3H]CGS-21680), and selected compounds were examined at the recombinant human subtypes (Table 1), using [^3H]CPX ([^3H]8-cyclopentyl-1,3-dipropylxanthine) and ^125I-ZM 241385, ^125I-4-(2-[7-amino-2-[2-furyl][1,2,4]triazolo[2,3-a][1,3,5]triazin-5-yl-amino]ethyl)phenol) [[Palmer et al., 1996]].

[2] = molecular target: T2, human A3 receptors (Homo sapiens, UniProt P0DMS8); assay: Displacement of [125I]AB-MECA binding at human A3 receptors expressed in HEK cells; conditions: read-out: Ki hA3
T2 construct: expressed in transfected cells; host or cells: HEK-293
T2 sequence (P0DMS8 1-318): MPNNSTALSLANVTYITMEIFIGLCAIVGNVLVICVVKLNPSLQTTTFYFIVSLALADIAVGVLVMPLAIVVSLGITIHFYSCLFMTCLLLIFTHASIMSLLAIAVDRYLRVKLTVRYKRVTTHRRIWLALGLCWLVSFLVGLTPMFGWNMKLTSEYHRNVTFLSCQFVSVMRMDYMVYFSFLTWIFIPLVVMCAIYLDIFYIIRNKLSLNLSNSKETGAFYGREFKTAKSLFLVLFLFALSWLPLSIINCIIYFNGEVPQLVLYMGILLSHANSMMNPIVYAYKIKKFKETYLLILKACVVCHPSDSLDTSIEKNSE
Description: as §3

[3] = molecular target: T3, rat A2A receptors (Rattus norvegicus, UniProt P30543); assay: Displacement of [3H]CGS 21680 binding to A2A receptors in rat striatal membranes; conditions: read-out: Ki rA2A
T3 construct: to A2A receptors from rat striatal membranes; from tissue; host or cells: rat striatal membranes
T3 sequence (P30543 whole entry): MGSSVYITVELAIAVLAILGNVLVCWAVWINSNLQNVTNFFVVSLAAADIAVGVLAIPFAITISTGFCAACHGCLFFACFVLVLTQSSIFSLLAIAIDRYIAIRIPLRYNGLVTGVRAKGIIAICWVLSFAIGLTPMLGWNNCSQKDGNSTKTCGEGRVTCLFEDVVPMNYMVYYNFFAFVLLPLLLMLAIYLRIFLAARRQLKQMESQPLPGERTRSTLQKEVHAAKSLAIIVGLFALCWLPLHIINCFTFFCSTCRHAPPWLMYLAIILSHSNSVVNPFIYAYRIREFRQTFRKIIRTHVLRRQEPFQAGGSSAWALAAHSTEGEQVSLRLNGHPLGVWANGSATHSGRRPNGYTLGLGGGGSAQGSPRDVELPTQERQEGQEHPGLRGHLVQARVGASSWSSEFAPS
Description: as §1, §2, §3

[4] = molecular target: T4, human A2B receptors (Homo sapiens, UniProt P29275); assay: Binding at human A2B receptors expressed in HEK-293 cells vs [3H]ZM241385; conditions: for rA1/hA2B: ratio of Ki rat A1 to Ki human A2B
T4 construct: expressed in transfected cells; host or cells: HEK-293
T4 sequence (P29275 1-332): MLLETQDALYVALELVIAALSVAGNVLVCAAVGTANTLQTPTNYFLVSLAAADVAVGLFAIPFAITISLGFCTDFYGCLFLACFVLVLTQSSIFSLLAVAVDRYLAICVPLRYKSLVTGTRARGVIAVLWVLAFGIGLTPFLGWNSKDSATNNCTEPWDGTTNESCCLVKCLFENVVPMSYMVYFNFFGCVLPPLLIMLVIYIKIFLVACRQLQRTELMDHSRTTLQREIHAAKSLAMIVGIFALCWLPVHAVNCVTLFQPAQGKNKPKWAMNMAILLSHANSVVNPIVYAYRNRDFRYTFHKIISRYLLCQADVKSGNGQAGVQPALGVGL
Description: The plasmid was amplified in competent JM109 cells and plasmid DNA isolated using Wizard Megaprep columns (Promega Corp., Madison, WI).
Colonies were selected by growth of cells in 0.6 mg/mL G418. Transfected cells were maintained in DMEM supplemented with Hams F12 nutrient mixture (1/1), 10% newborn calf serum, 2 mM glutamine, and containing 50 IU/mL penicillin, 50 μg/mL streptomycin, and 0.2 mg/mL Geneticin (G418, Boehringer Mannheim, Indianapolis, IN).
Confluent monolayers of HEK-A2B cells were washed with PBS followed by ice-cold Buffer A (10 mM HEPES, 10 mM EDTA, pH 7.4) with protease inhibitors ([…] benzamidine, […], and […] of each aprotinin, pepstatin, and leupeptin). The cells were homogenized in a Polytron (Brinkmann) for 20 sec, centrifuged at 30,000g, and the pellets washed twice with buffer HE (10 mM HEPES, 1 mM EDTA, pH 7.4 with protease inhibitors). The final pellet was resuspended in buffer HE, supplemented with 10% sucrose and frozen in aliquots at −80°C. For binding assays, membranes were thawed and diluted 5–10-fold with HE to a final protein concentration of approximately 1 mg/mL. […] After incubating for 20 min at room temperature, 50 mL of 10 mg/mL Na-metabisulfite in water was added the quench the reaction. The reaction products were applied to a C18 HPLC column using 4 mM phosphate, pH 6.0/methanol. […] The incubation time was 3 h at 21°C. […] Membranes were filtered on Whatman GF/C filters using a Brandell cell harvester (Gaithersburg, MD) and washed three times over 15–20 sec with ice-cold buffer (10 mM Tris, 1 mM MgCl2, pH 7.4). […] Data from replicate experiments are tabulated as means ± SEM.
At A2B receptors, two radioligand binding assays (Table 1) were used. […] In order to evaluate selectivity, selected derivatives were subjected to standard binding assays at A1, A2A, and A3 receptors.

[5] = HEK-293 cells, vs [3H]ZM241385, read-out: Ki hA2B
[6] = rounded values given in text, read-out: Ki at human A2B receptors

Row | SMILES | Ki [1] [µM] | Ki [2] [µM] | Ki [3] [µM] | Ki [4, 5] [µM] | rA1/hA2B [4] | Ki [4, 6] [µM]
1 | CCCn1c(=O)c2[nH]c(-c3ccc(OCC(=O)NN4C(=O)C(c5ccccc5)=C(c5ccccc5)C4=O)cc3)nc2n(CCC)c1=O [Compound 17, 8-[4-[(Carboxymethyl)oxy]phenyl]-1,3-di-(n-propyl)xanthine N,N-[(1,2-Diphenyl)maleyl]hydrazide] | 0.0958 ± 0.0251 | 3.45 | 2.1 | 0.0279 ± 0.0085 | 3.4 | 0.028
2 | CCCn1c(=O)c2[nH]c(-c3ccc(OCC(=O)NN4C(=O)C=C(c5ccccc5)C4=O)cc3)nc2n(CCC)c1=O [Compound 16, 8-[4-[(Carboxymethyl)oxy]phenyl]-1,3-di-(n-propyl)xanthine N,N-[(2-Phenyl)maleyl]hydrazide] | 0.225 ± 0.076 | 0.748 ± 0.234 | 1.54 | 0.0667 ± 0.037 | 3.4 | 0.067
3 | CCCn1c(=O)c2[nH]c(-c3ccc(OCC(=O)NN4C(=O)C=C(C)C4=O)cc3)nc2n(CCC)c1=O [Compound 13, 8-[4-[(Carboxymethyl)oxy]phenyl]-1,3-di-(n-propyl)xanthine N,N-Citraconylhydrazide] | 0.203 ± 0.041 | 0.551 ± 0.106 | 1.23 | 0.144 ± 0.011 | 1.4 | –
4 | CCCn1c(=O)c2[nH]c(-c3ccc(OCC(=O)NNC(=O)[C@H](CC(C)C)NC(=O)OC(C)(C)C)cc3)nc2n(CCC)c1=O [Compound 25, 8-[4-[(Carboxymethyl)oxy]phenyl]-1,3-di-(n-propyl)xanthine N-(N-tert-Butoxycarbonyl-L-leucinyl)-hydrazide] | 0.197 ± 0.067 | 0.195 ± 0.084 | 2.75 | 0.0475 ± 0.0025 | 4.1 | 0.048
5 | CCCn1c(=O)c2[nH]c(-c3ccc(OCC(=O)NN4C(=O)CCC(c5ccccc5)C4=O)cc3)nc2n(CCC)c1=O (stereo not shown) [Compound 12, 8-[4-[(Carboxymethyl)oxy]phenyl]-1,3-di-(n-propyl)xanthine N,N-[(2-Phenyl)glutaryl]hydrazide] | 0.00387 ± 0.0012 | 0.151 ± 0.099 | 0.0214 ± 0.0061 | 0.00386 ± 0.0007 | 1.0 | –
6 | CCCn1c(=O)c2[nH]c(-c3ccc(OCC(=O)NN4C(=O)CC(O)CC4=O)cc3)nc2n(CCC)c1=O [Compound 23, 8-[4-[(Carboxymethyl)oxy]phenyl]-1,3-di-(n-propyl)xanthine N,N-(3-Hydroxy)glutarylhydrazide] | 0.0412 ± 0.0166 | 0.29 ± 0.088 | 0.164 ± 0.061 | 0.0257 ± 0.0055 | 1.6 | –
7 | CCCn1c(=O)c2[nH]c(-c3ccc(OCC(=O)NN4C(=O)CCCC4=O)cc3)nc2n(CCC)c1=O [Compound 22, 8-[4-[(Carboxymethyl)oxy]phenyl]-1,3-di-(n-propyl)xanthine N,N-Glutarylhydrazide] | 0.014 ± 0.0023 | 0.2 ± 0.045 | 0.135 ± 0.039 | 0.022 ± 0.0055 | 0.6 | –
8 | CCCn1c(=O)c2[nH]c(-c3ccc(OCC(=O)NN4C(=O)C[C@H](NC(=O)C(F)(F)F)C4=O)cc3)nc2n(CCC)c1=O [Compound 11, 8-[4-[(Carboxymethyl)oxy]phenyl]-1,3-di-(n-propyl)xanthine N,N-[((2S)-Trifluoroacetamido)-succinyl]hydrazide] | 0.0743 ± 0.0066 | 1.56 | 0.139 ± 0.032 | 0.0302 ± 0.0005 | 2.5 | 0.03

Results, then the compound that gave them:

Row | Ki [1] [µM] | Ki [2] [µM] | Ki [3] [µM] | Ki [4, 5] [µM] | rA1/hA2B [4] | Ki [4, 6] [µM] | SMILES
9 | 0.016 ± 0.0005 | 0.498 ± 0.139 | 0.0638 ± 0.0213 | – | – | – | CCCn1c(=O)c2nc(-c3ccc(OCC(=O)NN)cc3)[nH]c2n(CCC)c1=O [Compound 4c]
10 | 0.0708 ± 0.0309 | 0.43 ± 0.044 | 0.872 ± 0.412 | 0.0248 ± 0.0073 | 2.9 | 0.025 | CCCn1c(=O)c2[nH]c(-c3ccc(OCC(=O)NNC(=O)[C@H](CCC(=O)O)NC(=O)C(F)(F)F)cc3)nc2n(CCC)c1=O [Compound 24a, 8-[4-[(Carboxymethyl)oxy]phenyl]-1,3-di-(n-propyl)xanthine N-[(4-Carboxy-(2S)-Trifluoroacetamido)-n-butanoyl]hydrazide]
11 | 0.134 ± 0.019 | 1.06 | 0.813 ± 0.299 | 0.051 ± 0.007 | 2.6 | – | CCCn1c(=O)c2[nH]c(-c3ccc(OCC(=O)NNC(=O)C4CC=CCC4C(=O)O)cc3)nc2n(CCC)c1=O (stereo not drawn) [Compound 18a, 8-[4-[(Carboxymethyl)oxy]phenyl]-1,3-di-(n-propyl)xanthine N-[2-((1-Carboxy)-cis-4-cyclohexene)-carbonyl]hydrazide]
12 | 0.0413 ± 0.0064 | 0.308 ± 0.088 | 1.16 | 0.0215 ± 0.0015 | 1.9 | – | CCCn1c(=O)c2[nH]c(-c3ccc(OCC(=O)NN4C(=O)C5=C(CCC5)C4=O)cc3)nc2n(CCC)c1=O [Compound 19b, 8-[4-[(Carboxymethyl)oxy]phenyl]-1,3-di-(n-propyl)xanthine N,N-(1-Cyclopentene-1,2-dicarbonyl)-hydrazide]
13 | 0.0817 ± 0.0312 | 1.18 | 0.708 ± 0.169 | 0.0785 ± 0.0205 | 1.0 | – | CCCn1c(=O)c2[nH]c(-c3ccc(OCC(=O)NNC(=O)C4=C(C(=O)O)CCC4)cc3)nc2n(CCC)c1=O [Compound 19a, 8-[4-[(Carboxymethyl)oxy]phenyl]-1,3-di-(n-propyl)xanthine N-[2-((1-Carboxy)-1-cyclopentene)-carbonyl]hydrazide]
14 | 0.0619 ± 0.0113 | 0.245 ± 0.045 | 0.415 ± 0.157 | 0.0358 ± 0.0007 | 1.7 | – | CCCn1c(=O)c2[nH]c(-c3ccc(OCC(=O)NN4C(=O)C5=C(CCCC5)C4=O)cc3)nc2n(CCC)c1=O [Compound 20b, 8-[4-[(Carboxymethyl)oxy]phenyl]-1,3-di-(n-propyl)xanthine N,N-(3,4,5,6-Tetrahydrophthaloyl)-hydrazide]
